Measured values: patent US11572369B2, “Bicyclic pyridine compositions and methods of using the same for cancer therapy” (UNIVERSITY OF SOUTH CAROLINA, priority 2019, dated 2023)

Tests used:
Assay in all cases: KINOMEscan
Assay type in all cases: binding
Conditions in all cases: 2000 nM
MKNK1 = target: T1, MKNK1 (Homo sapiens, UniProt Q9BUB5)
T1 construct: DNA label (qPCR read-out); purchased KINOMEscan scanMAX panel (DiscoveRx)

[1] = target: T2, RSK2(Kin.Dom.2-C-terminal) (Homo sapiens, UniProt P51812)
T2 construct: RSK2(Kin.Dom.2); purchased DiscoveRx (KINOMEscan scanMAX panel)

PKMYT1 = target: T3, PKMYT1 (Homo sapiens, UniProt Q99640)
T3 construct: DNA label (qPCR read-out); purchased KINOMEscan (DiscoveRx) panel
T3 sequence (Q99640 whole entry): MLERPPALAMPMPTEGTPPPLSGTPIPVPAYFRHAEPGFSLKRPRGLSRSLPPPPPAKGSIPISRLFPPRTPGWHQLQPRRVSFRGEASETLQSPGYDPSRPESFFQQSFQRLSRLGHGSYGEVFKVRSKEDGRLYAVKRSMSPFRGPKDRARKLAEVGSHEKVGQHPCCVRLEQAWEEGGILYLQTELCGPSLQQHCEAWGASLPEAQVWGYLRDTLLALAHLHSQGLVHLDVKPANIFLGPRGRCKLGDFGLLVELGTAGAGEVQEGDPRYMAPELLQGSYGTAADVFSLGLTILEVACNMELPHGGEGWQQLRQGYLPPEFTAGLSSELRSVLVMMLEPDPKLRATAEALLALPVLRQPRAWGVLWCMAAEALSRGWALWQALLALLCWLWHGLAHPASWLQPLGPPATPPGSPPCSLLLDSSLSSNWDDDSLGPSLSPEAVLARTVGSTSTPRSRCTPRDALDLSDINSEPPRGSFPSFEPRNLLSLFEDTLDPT

KIT(D816V) = target: T4, KIT(D816V) (Homo sapiens, UniProt P10721, D816V)
T4 construct: DNA label (for qPCR read-out); purchased DiscoveRx (KINOMEscan scanMAX panel)

CDC2L2 = target: T5, CDC2L2 (Homo sapiens, UniProt Q9UQ88)
T5 construct: purchased DiscoverX (KINOMEscan service)
T5 sequence (Q9UQ88 whole entry): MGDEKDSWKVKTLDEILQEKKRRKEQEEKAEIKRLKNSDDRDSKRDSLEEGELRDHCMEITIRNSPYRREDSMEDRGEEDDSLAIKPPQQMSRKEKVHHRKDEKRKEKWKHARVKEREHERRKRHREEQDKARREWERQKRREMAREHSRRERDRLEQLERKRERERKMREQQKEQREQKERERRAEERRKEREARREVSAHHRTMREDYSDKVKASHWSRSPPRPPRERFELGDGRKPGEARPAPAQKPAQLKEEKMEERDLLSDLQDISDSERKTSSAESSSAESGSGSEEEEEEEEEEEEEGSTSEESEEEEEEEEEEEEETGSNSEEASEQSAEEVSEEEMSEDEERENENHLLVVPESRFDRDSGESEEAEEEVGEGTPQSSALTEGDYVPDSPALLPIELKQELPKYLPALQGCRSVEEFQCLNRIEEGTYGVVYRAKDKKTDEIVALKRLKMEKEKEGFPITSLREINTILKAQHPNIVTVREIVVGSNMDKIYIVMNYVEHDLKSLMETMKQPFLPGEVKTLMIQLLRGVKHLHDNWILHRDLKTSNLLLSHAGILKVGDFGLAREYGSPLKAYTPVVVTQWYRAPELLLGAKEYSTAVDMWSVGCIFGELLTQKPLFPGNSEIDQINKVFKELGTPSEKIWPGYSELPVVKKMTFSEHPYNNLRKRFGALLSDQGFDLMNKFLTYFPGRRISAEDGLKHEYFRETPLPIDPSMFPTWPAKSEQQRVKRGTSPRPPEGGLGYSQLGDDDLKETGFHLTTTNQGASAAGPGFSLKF

FLT3(D835H) = target: T6, FLT3(D835H) (Homo sapiens, UniProt P36888, D835H)
T6 construct: purchased DiscoveRx (KINOMEscan scanMAX panel)

NEK2 = target: T7, NEK2 (Homo sapiens, UniProt P51955)
T7 construct: DNA label (qPCR read-out); purchased KINOMEscan (ScanMAX panel service)
T7 sequence (P51955 whole entry): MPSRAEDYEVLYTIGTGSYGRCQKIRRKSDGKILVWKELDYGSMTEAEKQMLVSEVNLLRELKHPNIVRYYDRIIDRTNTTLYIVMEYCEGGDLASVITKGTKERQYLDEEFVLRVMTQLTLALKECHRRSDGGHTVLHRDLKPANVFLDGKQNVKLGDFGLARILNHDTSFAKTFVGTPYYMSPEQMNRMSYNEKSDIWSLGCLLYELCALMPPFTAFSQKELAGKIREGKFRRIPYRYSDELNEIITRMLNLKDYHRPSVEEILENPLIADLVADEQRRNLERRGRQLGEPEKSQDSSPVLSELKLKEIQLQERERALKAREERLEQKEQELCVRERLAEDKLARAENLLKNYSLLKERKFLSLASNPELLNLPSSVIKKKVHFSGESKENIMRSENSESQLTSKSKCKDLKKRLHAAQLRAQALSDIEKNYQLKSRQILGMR

AMPK-alpha2 = target: T8, AMPK-alpha2 (Homo sapiens, UniProt P54646)
T8 construct: DNA label (qPCR read-out); purchased KINOMEscan scanMAX panel (DiscoveRx)

LATS1 = target: T9, LATS1 (Homo sapiens, UniProt O95835)
T9 construct: purchased KINOMEscan (DiscoveRx) panel service

PFTAIRE2 = target: T10, PFTAIRE2 (Homo sapiens, UniProt Q96Q40)
T10 construct: DNA label (for qPCR read-out); purchased DiscoveRx (KINOMEscan scanMAX service)

CSNK1G1 = target: T11, CSNK1G1 (Homo sapiens, UniProt Q9HCP0)
T11 construct: DNA label; purchased DiscoveRx (KINOMEscan scanMAX panel)

AXL = target: T12, AXL (Homo sapiens, UniProt P30530)
T12 construct: DNA label (qPCR read-out); purchased KINOMEscan scanMAX panel (DiscoveRx)
T12 sequence (P30530 26-894): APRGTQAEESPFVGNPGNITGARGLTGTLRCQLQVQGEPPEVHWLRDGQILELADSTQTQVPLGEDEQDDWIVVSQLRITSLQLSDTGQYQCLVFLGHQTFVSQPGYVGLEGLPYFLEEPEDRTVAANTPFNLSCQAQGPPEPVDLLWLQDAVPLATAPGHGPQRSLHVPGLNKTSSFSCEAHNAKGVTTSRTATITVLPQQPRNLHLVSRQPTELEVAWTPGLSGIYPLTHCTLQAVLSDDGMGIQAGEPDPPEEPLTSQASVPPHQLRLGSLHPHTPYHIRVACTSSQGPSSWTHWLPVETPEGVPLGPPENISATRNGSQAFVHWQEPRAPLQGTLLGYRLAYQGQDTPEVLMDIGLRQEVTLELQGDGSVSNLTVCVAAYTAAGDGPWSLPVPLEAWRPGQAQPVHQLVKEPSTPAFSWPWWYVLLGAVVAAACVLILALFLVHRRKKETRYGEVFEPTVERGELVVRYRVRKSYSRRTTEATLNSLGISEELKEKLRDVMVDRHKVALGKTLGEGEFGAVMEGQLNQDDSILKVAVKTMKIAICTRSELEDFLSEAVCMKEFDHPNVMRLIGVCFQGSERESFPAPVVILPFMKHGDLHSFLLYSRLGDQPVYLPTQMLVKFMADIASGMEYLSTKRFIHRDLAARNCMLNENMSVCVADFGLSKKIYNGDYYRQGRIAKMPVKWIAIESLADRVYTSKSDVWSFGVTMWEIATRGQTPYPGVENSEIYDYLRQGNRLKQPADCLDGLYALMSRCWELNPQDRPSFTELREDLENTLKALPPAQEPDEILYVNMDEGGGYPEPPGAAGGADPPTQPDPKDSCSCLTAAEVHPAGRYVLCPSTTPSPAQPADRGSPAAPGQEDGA

p38-alpha = target: T13, p38-alpha (Homo sapiens, UniProt Q16539)
T13 construct: purchased DiscoverX (KINOMEscan service)

MEK6 = target: T14, MEK6 (Homo sapiens, UniProt P52564)
T14 construct: purchased DiscoveRx (KINOMEscan scanMAX panel, service)

EGFR = target: T15, EGFR (Homo sapiens, UniProt P00533)
T15 construct: purchased DiscoveRx (KINOMEscan scanMAX panel)

NEK4 = target: T16, NEK4 (Homo sapiens, UniProt P51957)
T16 construct: DNA label (qPCR read-out); purchased KINOMEscan (ScanMAX panel service)

PDGFRA = target: T17, PDGFRA (Homo sapiens, UniProt P16234)
T17 construct: DNA label (for qPCR read-out); purchased DiscoveRx (KINOMEscan scanMAX service)

PIK3CA(I800L) = target: T18, PIK3CA(I800L) (Homo sapiens, UniProt P42336, I800L)
T18 construct: DNA label; purchased DiscoveRx (KINOMEscan scanMAX panel)

ANKK1 = target: T19, ANKK1 (Homo sapiens, UniProt Q8NFD2)
T19 construct: DNA label (qPCR read-out); purchased KINOMEscan scanMAX panel (DiscoveRx)

TRKB = target: T20, TRKB (Homo sapiens, UniProt Q16620)
T20 construct: DNA label (qPCR read-out); purchased KINOMEscan (DiscoveRx) ScanMAX panel

TGFBR2 = target: T21, TGFBR2 (Homo sapiens, UniProt P37173)
T21 construct: DNA label (qPCR read-out); purchased KINOMEscan (DiscoveRx) ScanMAX panel
T21 sequence (P37173 23-567): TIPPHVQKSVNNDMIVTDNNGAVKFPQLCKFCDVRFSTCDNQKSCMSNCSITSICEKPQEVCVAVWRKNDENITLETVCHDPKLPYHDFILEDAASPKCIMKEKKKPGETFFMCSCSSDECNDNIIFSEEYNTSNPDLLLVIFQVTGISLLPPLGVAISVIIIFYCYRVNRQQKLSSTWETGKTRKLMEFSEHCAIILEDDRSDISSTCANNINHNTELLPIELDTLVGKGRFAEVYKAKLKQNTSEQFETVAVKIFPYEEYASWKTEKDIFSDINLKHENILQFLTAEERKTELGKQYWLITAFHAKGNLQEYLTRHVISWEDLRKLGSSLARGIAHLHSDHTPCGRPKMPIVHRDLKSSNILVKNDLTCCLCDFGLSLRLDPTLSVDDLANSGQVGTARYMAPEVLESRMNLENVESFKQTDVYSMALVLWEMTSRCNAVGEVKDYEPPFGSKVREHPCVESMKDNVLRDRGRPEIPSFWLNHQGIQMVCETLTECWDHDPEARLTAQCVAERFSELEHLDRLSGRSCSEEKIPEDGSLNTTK

FGFR3(G697C) = target: T22, FGFR3(G697C) (Homo sapiens, UniProt P22607, G697C)
T22 construct: purchased DiscoveRx (KINOMEscan scanMAX panel)

BIKE = target: T23, BIKE (Homo sapiens, UniProt Q9NSY1)
T23 construct: DNA label (qPCR read-out); purchased KINOMEscan scanMAX panel (DiscoveRx)

QSK = target: T24, QSK (Homo sapiens, UniProt Q9Y2K2)
T24 construct: purchased DiscoveRx (KINOMEscan scanMAX panel)

NEK5 = target: T25, NEK5 (Homo sapiens, UniProt Q6P3R8)
T25 construct: DNA label (qPCR read-out); purchased KINOMEscan (ScanMAX panel service)

VEGFR2 = target: T26, VEGFR2 (Homo sapiens, UniProt P35968)
T26 construct: DNA label (for qPCR read-out); purchased DiscoveRx (KINOMEscan scanMAX panel)

MERTK = target: T27, MERTK (Homo sapiens, UniProt Q12866)
T27 construct: purchased DiscoveRx (KINOMEscan scanMAX panel, service)
T27 sequence (Q12866 21-999): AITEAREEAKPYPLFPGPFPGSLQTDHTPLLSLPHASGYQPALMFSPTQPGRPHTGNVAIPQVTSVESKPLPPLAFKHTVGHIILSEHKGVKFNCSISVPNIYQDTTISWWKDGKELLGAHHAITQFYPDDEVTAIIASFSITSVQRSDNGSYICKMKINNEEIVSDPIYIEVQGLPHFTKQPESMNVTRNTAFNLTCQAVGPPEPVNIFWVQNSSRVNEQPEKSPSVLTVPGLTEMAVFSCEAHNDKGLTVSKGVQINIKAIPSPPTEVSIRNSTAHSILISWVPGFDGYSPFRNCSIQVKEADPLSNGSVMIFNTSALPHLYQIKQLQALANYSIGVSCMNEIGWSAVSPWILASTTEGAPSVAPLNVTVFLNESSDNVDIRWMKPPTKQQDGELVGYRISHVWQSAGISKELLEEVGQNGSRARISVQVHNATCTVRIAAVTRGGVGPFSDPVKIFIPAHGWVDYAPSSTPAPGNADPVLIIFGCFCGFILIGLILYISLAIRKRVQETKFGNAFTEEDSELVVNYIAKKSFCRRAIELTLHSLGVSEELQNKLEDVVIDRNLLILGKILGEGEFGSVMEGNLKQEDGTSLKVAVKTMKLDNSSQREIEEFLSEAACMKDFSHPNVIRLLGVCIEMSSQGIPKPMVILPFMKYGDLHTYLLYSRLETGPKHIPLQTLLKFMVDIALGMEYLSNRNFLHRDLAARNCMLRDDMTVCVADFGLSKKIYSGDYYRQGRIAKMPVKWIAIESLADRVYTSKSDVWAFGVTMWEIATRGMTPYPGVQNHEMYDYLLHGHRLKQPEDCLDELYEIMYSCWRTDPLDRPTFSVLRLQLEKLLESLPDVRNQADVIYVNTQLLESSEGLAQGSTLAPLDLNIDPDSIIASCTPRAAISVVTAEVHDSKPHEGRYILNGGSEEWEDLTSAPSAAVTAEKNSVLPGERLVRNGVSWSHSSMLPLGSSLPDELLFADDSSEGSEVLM

RET(V804L) = target: T28, RET(V804L) (Homo sapiens, UniProt P07949, V804L)
T28 construct: purchased DiscoveRx (KINOMEscan scanMAX panel)

ADCK4 = target: T29, ADCK4 (Homo sapiens, UniProt Q96D53)
T29 construct: purchased DiscoveRx (KINOMEscan scanMAX panel, service)

PRKX = target: T30, PRKX (Homo sapiens, UniProt P51817)
T30 construct: purchased DiscoveRx (KINOMEscan scanMAX panel)

ERBB2 = target: T31, ERBB2 (Homo sapiens, UniProt P04626)
T31 construct: DNA label (qPCR read-out); purchased DiscoveRx (KINOMEscan ScanMAX panel)

LATS2 = target: T32, LATS2 (Homo sapiens, UniProt Q9NRM7)
T32 construct: purchased KINOMEscan (DiscoveRx) panel service

YES = target: T33, YES (Homo sapiens, UniProt P07947)
T33 construct: purchased KINOMEscan (DiscoveRx) panel service

IRAK1 = target: T34, IRAK1 (Homo sapiens, UniProt P51617)
T34 construct: DNA label (qPCR read-out); purchased KINOMEscan (DiscoveRx) ScanMAX panel
T34 sequence (P51617 whole entry): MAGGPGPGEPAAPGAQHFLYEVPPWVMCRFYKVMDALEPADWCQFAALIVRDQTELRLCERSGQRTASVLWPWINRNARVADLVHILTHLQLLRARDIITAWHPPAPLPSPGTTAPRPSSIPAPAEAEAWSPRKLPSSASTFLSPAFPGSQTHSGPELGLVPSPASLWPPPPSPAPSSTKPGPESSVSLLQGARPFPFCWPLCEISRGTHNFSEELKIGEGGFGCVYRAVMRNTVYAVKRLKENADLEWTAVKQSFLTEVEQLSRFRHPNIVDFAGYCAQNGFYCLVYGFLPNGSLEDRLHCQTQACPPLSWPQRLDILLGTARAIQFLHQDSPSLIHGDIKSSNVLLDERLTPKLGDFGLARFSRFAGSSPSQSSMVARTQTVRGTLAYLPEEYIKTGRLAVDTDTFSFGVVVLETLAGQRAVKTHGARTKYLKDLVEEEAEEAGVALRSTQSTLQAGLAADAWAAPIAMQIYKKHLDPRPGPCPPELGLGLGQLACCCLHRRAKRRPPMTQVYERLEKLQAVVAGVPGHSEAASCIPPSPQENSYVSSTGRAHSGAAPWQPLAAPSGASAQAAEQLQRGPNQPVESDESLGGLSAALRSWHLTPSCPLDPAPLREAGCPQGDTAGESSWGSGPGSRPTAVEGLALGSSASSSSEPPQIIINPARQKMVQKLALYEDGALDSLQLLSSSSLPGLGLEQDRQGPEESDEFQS

PLK1 = target: T35, PLK1 (Homo sapiens, UniProt P53350)
T35 construct: purchased DiscoveRx (KINOMEscan scanMAX panel)

DCAMKL2 = target: T36, DCAMKL2 (Homo sapiens, UniProt Q8N568)
T36 construct: DNA label (qPCR read-out); purchased KINOMEscan (DiscoveRx) panel

Row | SMILES | % Ctrl (MKNK1) | % Ctrl [1] | % Ctrl (PKMYT1) | % Ctrl (KIT(D816V)) | % Ctrl (CDC2L2) | % Ctrl (FLT3(D835H)) | % Ctrl (NEK2) | % Ctrl (AMPK-alpha2) | % Ctrl (LATS1) | % Ctrl (PFTAIRE2) | % Ctrl (CSNK1G1) | % Ctrl (AXL) | % Ctrl (p38-alpha) | % Ctrl (MEK6) | % Ctrl (EGFR) | % Ctrl (NEK4) | % Ctrl (PDGFRA) | % Ctrl (PIK3CA(I800L)) | % Ctrl (ANKK1) | % Ctrl (TRKB) | other results
1 | [2H]C([2H])([2H])N(C(=O)c1ccc(N2CCCN(c3ccnc4sc(C(N)=O)c(N)c34)CC2)cc1)C([2H])([2H])[2H] [15u_D6, 3-amino-4-(4-(4-(bis(methyl-d3)carbamoyl)phenyl)-1,4-diazepan-1-yl)thieno[2,3-b]pyridine-2-carboxamide] | 79 % Ctrl | 92 % Ctrl | 94 % Ctrl | 79 % Ctrl | 100 % Ctrl | 76 % Ctrl | 95 % Ctrl | 95 % Ctrl | 97 % Ctrl | 80 % Ctrl | 80 % Ctrl | 96 % Ctrl | 99 % Ctrl | 96 % Ctrl | 87 % Ctrl | 95 % Ctrl | 65 % Ctrl | 74 % Ctrl | 91 % Ctrl | 78 % Ctrl | % Ctrl (TGFBR2): 100 % Ctrl; % Ctrl (FGFR3(G697C)): 100 % Ctrl; % Ctrl (BIKE): 96 % Ctrl; % Ctrl (QSK): 97 % Ctrl; % Ctrl (NEK5): 100 % Ctrl; % Ctrl (VEGFR2): 84 % Ctrl; % Ctrl (MERTK): 100 % Ctrl; % Ctrl (RET(V804L)): 100 % Ctrl; % Ctrl (ADCK4): 83 % Ctrl; % Ctrl (PRKX): 95 % Ctrl; % Ctrl (ERBB2): 89 % Ctrl; % Ctrl (LATS2): 31 % Ctrl; % Ctrl (YES): 100 % Ctrl; % Ctrl (IRAK1): 84 % Ctrl; % Ctrl (PLK1): 89 % Ctrl; % Ctrl (DCAMKL2): 100 % Ctrl
2 | CN(C)C(=O)c1ccc(N2CCCN(c3ccnc4sc(C(N)=O)c(N)c34)CC2)cc1 [15u, 3-amino-4-(4-(4-(dimethylcarbamoyl)phenyl)-1,4-diazepan-1-yl)thieno[2,3-b]pyridine-2-carboxamide] | 94 % Ctrl | 94 % Ctrl | 91 % Ctrl | 93 % Ctrl | 100 % Ctrl | 63 % Ctrl | 95 % Ctrl | 80 % Ctrl | 89 % Ctrl | 100 % Ctrl | 90 % Ctrl | 99 % Ctrl | 93 % Ctrl | 100 % Ctrl | 100 % Ctrl | 100 % Ctrl | 70 % Ctrl | 97 % Ctrl | 100 % Ctrl | 88 % Ctrl | % Ctrl (TGFBR2): 100 % Ctrl; % Ctrl (FGFR3(G697C)): 95 % Ctrl; % Ctrl (BIKE): 100 % Ctrl; % Ctrl (QSK): 89 % Ctrl; % Ctrl (NEK5): 94 % Ctrl; % Ctrl (VEGFR2): 67 % Ctrl; % Ctrl (MERTK): 89 % Ctrl; % Ctrl (RET(V804L)): 100 % Ctrl; % Ctrl (ADCK4): 95 % Ctrl; % Ctrl (PRKX): 94 % Ctrl; % Ctrl (ERBB2): 100 % Ctrl; % Ctrl (LATS2): 94 % Ctrl; % Ctrl (YES): 99 % Ctrl; % Ctrl (IRAK1): 94 % Ctrl; % Ctrl (PLK1): 95 % Ctrl; % Ctrl (DCAMKL2): 100 % Ctrl
